In assay [1] the target is GST-tagged K-Ras mutant / His-tagged hSOS1 (Homo sapiens, UniProt P01116). The assay can be described thus: HTRF assay, K-Ras mutant / SOS1 interaction. Type of assay: binding. Conditions: read-out: IC50 against mutant Kras. The procedure, abridged:
(§1)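 Inhibition of wildtype or mutant K-Ras binding to hSOS1 is measured by FRET between antibody-bound Eu donor and XL665 acceptor. Protein levels are matched to the IC50 range under study. The 665/620 nm signal after ≥10 min yields IC50.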
(In TR-FRET formats the signal depends on donor and acceptor labels being close together.)

For a further assay, the target named is T1, wildtype Kras / hSOS1 (Homo sapiens, UniProt P01116).
T1 construct: made in house; host or cells: E. coli BL21 (DE3)
T1 sequence (P01116 1-188 isoform P01116-2): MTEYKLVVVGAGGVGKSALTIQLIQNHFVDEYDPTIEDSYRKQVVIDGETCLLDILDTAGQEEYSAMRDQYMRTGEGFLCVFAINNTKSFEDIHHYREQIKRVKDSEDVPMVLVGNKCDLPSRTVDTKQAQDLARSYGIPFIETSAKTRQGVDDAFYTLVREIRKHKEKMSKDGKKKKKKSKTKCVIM
The assay can be described thus: HTRF assay, wildtype Kras / SOS1 interaction. In kind it is binding. The following applies: read-out: IC50 against wildtype Kras. The procedure, abridged:
as §1

Where [2] appears, read: compound nos. 102-196, general methodology of example 5.
The mark [3] stands for this setting: compound nos. 201-213, general methodology of example 5.

For orientation: IC50 means the concentration that gives 50% inhibition.

Read-outs that look alike come from different tables or passages of the source.

Chain of GST-tagged K-Ras mutant / His-tagged hSOS1 (P01116 whole entry G12D, form open): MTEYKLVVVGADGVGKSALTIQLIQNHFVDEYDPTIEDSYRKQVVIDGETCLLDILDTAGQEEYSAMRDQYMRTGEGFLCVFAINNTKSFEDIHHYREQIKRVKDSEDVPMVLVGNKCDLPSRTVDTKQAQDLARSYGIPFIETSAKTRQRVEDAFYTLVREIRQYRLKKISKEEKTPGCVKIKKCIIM

Turning to `Nc1nc2c(-c3c(Cl)cc4c(N5CCNCC(F)(F)C5)nc(OCC56CCCN5CCC6)nc4c3F)cccc2s1` [Compound 105, 4-(6-chloro-4-(6,6-difluoro-1,4-diazepan-1-yl)-8-fluoro-2-((tetrahydro-1H-pyrrol-izin-7a(5H)-yl)methoxy)-quinazolin-7-yl)benzo[d]-thiazol-2-amine], the IC50 (in assay [1] (setting [2]); on wildtype Kras / hSOS1 (setting [2])) was under 500 nM throughout.
On to `Nc1nc2c(-c3c(Cl)cc4c(N5CCCN(S(=O)(=O)C6CC6)CC5)nc(OC[C@@]56CCCN5C[C@H](F)C6)nc4c3F)ccc(F)c2s1` [Compound 435, 4-(6-chloro-4-(4-(cyclo-propylsulfonyl)-1,4-diazepan-1-yl)-8-fluoro-2-(((2R,7aS)-2-fluorotetra-hydro-1H-pyrrolizin-7a(5H)-yl)methoxy)quinazolin-7-yl)-7-fluorobenzo[d]thiazol-2-amine], for which the IC50 (in assay [1] (compound nos. 401-703); at wildtype Kras / hSOS1 (compound nos. 401-703)) was under 500 nM each time.
For `CN1CCC[C@H]1COc1nc(N2CCCC(NS(=O)(=O)C3CC3)CC2)c2cc(Cl)c(-c3cccc4sc(N)nc34)c(F)c2n1` (stereo partly drawn) [Compound 472, N-(1-(7-(2-aminobenzo[d]-thiazol-4-yl)-6-chloro-8-fluoro-2-(((S)-1-methylpyr-rolidin-2-yl)methoxy)quin-azolin-4-yl)azepan-4-yl)-cyclopropanesulfonamide], the IC50 (in assay [1] (compound nos. 401-703); at wildtype Kras / hSOS1 (compound nos. 401-703)) was under 500 nM throughout.
In the case of `CN1CCC[C@H]1COc1nc(N2CCCCC(O)C2)c2cc(Cl)c(-c3cccc4sc(N)nc34)c(F)c2n1` (stereo partly drawn) [Compound 562, 1-(7-(2-aminobenzo[d]-thiazol-4-yl)-6-chloro-8-fluoro-2-(((S)-1-methyl-pyrrolidin-2-yl)methoxy)-quinazolin-4-yl)azepan-3-ol], the IC50 was under 500 nM in assay [1] (compound nos. 401-703) and over 500 nM at wildtype Kras / hSOS1 (compound nos. 401-703).
On to `CN1CCC[C@H]1COc1nc(N2C3CCNCC2CC3)c2cc(Cl)c(-c3cccc4sc(N)nc34)c(F)c2n1` (stereo partly drawn) [Compound 180, 4-(4-(3,9-diazabicyclo-[4.2.1]nonan-9-yl)-6-chloro-8-fluoro-2-(((S)-1-methyl-pyrrolidin-2-yl)methoxy)-quinazolin-7-yl)benzo[d]-thiazol-2-amine], for which the IC50 in assay [1] (setting [2]) is under 500 nM; at wildtype Kras / hSOS1 (setting [2]), over 500 nM.
For the molecule `N#Cc1c(N)sc2cccc(-c3c(Cl)cc4c(N5CC6CCC(C5)N6)nc(OC[C@@]56CCCN5C[C@H](F)C6)nc4c3F)c12` [Compound 552, 4-(4-(3,8-diazabicyclo-[3.2.1]octan-3-yl)-6-chloro-8-fluoro-2-(((2R,7aS)-2-fluorotetrahydro-1H-pyrrol-izin-7a(5H)-yl)methoxy)-quinazolin-7-yl)-2-amino-benzo[b]thiophene-3-carbonitrile], the IC50 in assay [1] (compound nos. 401-703) is under 500 nM; on wildtype Kras / hSOS1 (compound nos. 401-703), over 500 nM.
Regarding `Fc1c(-c2cccc3scc(Cl)c23)c(Cl)cc2c(N3CC4CCC(C3)N4)nc(OC[C@@]34CCCN3C[C@H](F)C4)nc12` [Compound 423, 4-(3,8-diazabicyclo[3.2.1]-octan-3-yl)-6-chloro-7-(3-chlorobenzo[b]thiophen-4-yl)-8-fluoro-2-(((2R,7aS)-2-fluorotetrahydro-1H-pyrrolizin-7a(5H)-yl)meth-oxy)quinazoline], the figures for the IC50 (in assay [1] (compound nos. 401-703); at wildtype Kras / hSOS1 (compound nos. 401-703)) were over 500 nM and under 500 nM, respectively.
Turning to `Cc1cc(N)nc(-c2c(Cl)cc3c(N4CCNCC(F)(F)C4)nc(OC[C@@H]4CCCN4C)nc3c2F)c1` [Compound 189, (S)-6-(6-chloro-4-(6,6-difluoro-1,4-diazepan-1-yl)-8-fluoro-2-((1-methyl-pyrrolidin-2-yl)methoxy)-quinazolin-7-yl)-4-methyl-pyridin-2-amine], the half-maximal inhibitory concentration (IC50) (in assay [1] (setting [2]); at wildtype Kras / hSOS1 (setting [2])) was over 500 nM in each case.
For the molecule `Cc1c(N)sc2cccc(-c3ccc4c(N5CC6CCC(C5)N6)nc(OC[C@@]56CCCN5C[C@H](F)C6)nc4c3F)c12` [Compound 437, 4-(4-(3,8-diazabicyclo-[3.2.1]octan-3-yl)-8-fluoro-2-(((2R,7aS)-2-fluorotetra-hydro-1H-pyrrolizin-7a(5H)-yl)methoxy)quinazolin-7-yl)-3-methylbenzo[b]thio-phen-2-amine], the values for the IC50 (in assay [1] (compound nos. 401-703); on wildtype Kras / hSOS1 (compound nos. 401-703)) were over 500 nM and under 500 nM, respectively.
Regarding `CN(C)CC1(COc2nc(N3C[C@H]4CC[C@@H](C3)N4)c3cc(Cl)c(-c4cc(O)cc5ccccc45)c(F)c3n2)CC1` [Compound 701, 4-(4-((1R,5S)-3,8-diazabicyclo[3.2.1]octan-3-yl)-6-chloro-2-((1-((dimethylamino)methyl)cyclopropyl)methoxy)-8-fluoroquinazolin-7-yl)naphthalen-2-ol], the IC50 is under 500 nM in assay [1] (compound nos. 401-703) and over 500 nM at wildtype Kras / hSOS1 (compound nos. 401-703).
As to `Nc1nc2c(-c3c(Cl)cc4c(N5C[C@H]6CC[C@@H](C5)N6)nc(OCC5(CN6CCCC6)CC5)nc4c3F)cccc2o1` [Compound 212, 4-(4-((1R,5S)-3,8-diaza-bicyclo[3.2.1]octan-3-yl)-6-chloro-8-fluoro-2-((1-(pyrrolidin-1-ylmethyl)-cyclopropyl)methoxy)quin-azolin-7-yl)benzo[d]oxazol-2-amine], the IC50 (in assay [1] (setting [3]); on wildtype Kras / hSOS1 (setting [3])) was under 1500 nM each time.
In the case of `CO[C@H]1C[C@@H](COc2nc(N3CCNCC(F)(F)C3)c3cc(Cl)c(-c4cccc5sc(N)nc45)c(F)c3n2)N(C)C1` [Compound 126, 4-(6-chloro-4-(6,6-difluoro-1,4-diazepan-1-yl)-8-fluoro-2-(((2S,4S)-4-methoxy-1-methylpyrrolidin-2-yl)-methoxy)quinazolin-7-yl)-benzo[d]thiazol-2-amine], the results for the IC50 (in assay [1] (setting [2]); on wildtype Kras / hSOS1 (setting [2])) were over 500 nM and under 500 nM, respectively.
On to `Nc1nc2c(-c3ccc4c(N5CC6CCC(C5)N6)nc(OC[C@@]56CCCN5C[C@H](F)C6)nc4c3F)ccc(F)c2s1` [Compound 612, 4-(4-(3,8-diazabicyclo-[3.2.1]octan-3-yl)-8-fluoro-2-(((2R,7aS)-2-fluorotetra-hydro-1H-pyrrolizin-7a(5H)-yl)methoxy)quinazolin-7-yl)-7-fluorobenzo[d]thiazol-2-amine], for which the IC50 (in assay [1] (compound nos. 401-703); at wildtype Kras / hSOS1 (compound nos. 401-703)) was over 500 nM in each case.
For the molecule `Nc1nc2c(-c3c(Cl)cc4c(N5CCNCC(O)C5)nc(OCC56CCCN5C[C@H](F)C6)nc4c3F)ccc(F)c2s1` (stereo partly drawn) [Compound 162, 1-(7-(2-amino-7-fluoro-benzo[d]thiazol-4-yl)-6-chloro-8-fluoro-2-(((2R)-2-fluorotetrahydro-1H-pyrrol-izin-7a(5H)-yl)methoxy)-quinazolin-4-yl)-1,4-diazepan-6-ol], the IC50 (in assay [1] (setting [2]); on wildtype Kras / hSOS1 (setting [2])) was under 500 nM each time.
For the molecule `Nc1nc2c(-c3c(Cl)cc4c(N5CCNCC(F)(F)C5)nc(OCC56CCCN5CCC6)nc4c3F)c(F)ccc2s1` [Compound 633, 4-(6-chloro-4-(6,6-difluoro-1,4-diazepan-1-yl)-8-fluoro-2-((tetrahydro-1H-pyrrol-izin-7a(5H)-yl)methoxy)-quinazolin-7-yl)-5-fluoro-benzo[d]thiazol-2-amine], the results for the IC50 (in assay [1] (compound nos. 401-703); at wildtype Kras / hSOS1 (compound nos. 401-703)) were under 500 nM and over 500 nM, respectively.
As to `Nc1ccc2cccc(-c3ccc4c(N5CC6CCC(C5)N6)nc(OCC56CCCN5CCC6)nc4c3F)c2n1` [Compound 596, 8-(4-(3,8-diazabicyclo-[3.2.1]octan-3-yl)-8-fluoro-2-((tetrahydro-1H-pyrrol-izin-7a(5H)-yl)methoxy)-quinazolin-7-yl)quinolin-2-amine], the IC50 (in assay [1] (compound nos. 401-703); on wildtype Kras / hSOS1 (compound nos. 401-703)) was over 500 nM in each case.
`N#Cc1csc2cccc(-c3c(Cl)cc4c(N5CC6CCC(C5)N6)nc(OC[C@@]56CCCN5C[C@H](F)C6)nc4c3F)c12` [Compound 674, 4-(4-(3,8-diazabicyclo-[3.2.1]-octan-3-yl)-6-chloro-8-fluoro-2-(((2R,7aS)-2-fluorotetrahydro-1H-pyrrol-izin-7a(5H)-yl)methoxy)-quinazolin-7-yl)benzo[b]-thiophene-3-carbonitrile]: the IC50 in assay [1] (compound nos. 401-703) was under 500 nM; on wildtype Kras / hSOS1 (compound nos. 401-703), over 500 nM.
As for `CN1CCC[C@H]1COc1nc(N2CCNCC(F)(F)C2)c2cc(Cl)c(-c3cccc4oc(O)nc34)c(F)c2n1` [Compound 176, 4-(6-chloro-4-(6,6-difluoro-1,4-diazepan-1-yl)-8-fluoro-2-(((S)-1-methylpyrrolidin-2-yl)methoxy)quinazolin-7-yl)benzo[d]oxazol-2-ol], the half-inhibitory concentration (IC50) (in assay [1] (setting [2]); at wildtype Kras / hSOS1 (setting [2])) was over 500 nM throughout.
Consider `CN1CCC[C@H]1COc1nc(N2CCC(F)C(F)CC2)c2cc(Cl)c(-c3cccc4sc(N)nc34)c(F)c2n1` (stereo partly drawn) [Compound 642, 4-(6-chloro-4-(4,5-difluoro-azepan-1-yl)-8-fluoro-2-(((S)-1-methylpyrrolidin-2-yl)methoxy)quinazolin-7-yl)-benzo[d]thiazol-2-amine], for which the values for the IC50 (in assay [1] (compound nos. 401-703); at wildtype Kras / hSOS1 (compound nos. 401-703)) were under 500 nM and over 500 nM, respectively.
In the case of `CN1CCC[C@@H]1COc1nc(N2CCNCC(F)(F)C2)c2cc(Cl)c(-c3cccc4sc(N)nc34)c(F)c2n1` [Compound 113, 4-(6-chloro-4-(6,6-difluoro-1,4-diazepan-1-yl)-8-fluoro-2-(((R)-1-methylpyrrolidin-2-yl)methoxy)quinazolin-7-yl)benzo[d]thiazol-2-amine], the IC50 (in assay [1] (setting [2]); at wildtype Kras / hSOS1 (setting [2])) was under 500 nM in each case.
With `Nc1cc(-c2c(Cl)cc3c(N4CCCCCC4)nc(OCC45CCCN4CCC5)nc3c2F)ccc1F` [Compound 670, 5-(4-(azepan-1-yl)-6-chloro-8-fluoro-2-((tetrahydro-1H-pyrrolizin-7a(5H)-yl)meth-oxy)quinazolin-7-yl)-2-fluoroaniline], the IC50 (in assay [1] (compound nos. 401-703); at wildtype Kras / hSOS1 (compound nos. 401-703)) was over 500 nM in each case.
